We go through 19 compounds from patent publication US20250154686A1, “COMPOUND LIBRARY” (CHUGAI SEIYAKU KABUSHIKI KAISHA, priority 2021, published 2025).

For this experiment, the target named is T1, Bcl-2 protein (Recombinant Human Bcl-2 Protein) (Homo sapiens, UniProt P10415).
T1 construct: purchased Novus Biologicals NBP2-34889
Description: AS-MS evaluation of binding of the Example 4 mixture library (1200 compounds/well) to Bcl-2, ASMS ratio (%). The following applies: AS-MS, Example 4 mixture library; for ASMS ratio (%) n = 1: Bcl-2, replicate n = 1; for ASMS ratio (%) n = 2: Bcl-2, replicate n = 2. An outline of the steps:
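ASMS ratio (%) derived from reverse-phase LC/MS of three samples: Bcl-2 (20 μM) incubation after SEC, protein-free standard without SEC, and protein-free blank after SEC. Compounds were pooled at 1200/well, 20 nM each, incubated 1 h, 23 °C, dark, in Tris-HCl pH 7.4 buffer with Tween-20 and DTT.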

T1 sequence (P10415 whole entry): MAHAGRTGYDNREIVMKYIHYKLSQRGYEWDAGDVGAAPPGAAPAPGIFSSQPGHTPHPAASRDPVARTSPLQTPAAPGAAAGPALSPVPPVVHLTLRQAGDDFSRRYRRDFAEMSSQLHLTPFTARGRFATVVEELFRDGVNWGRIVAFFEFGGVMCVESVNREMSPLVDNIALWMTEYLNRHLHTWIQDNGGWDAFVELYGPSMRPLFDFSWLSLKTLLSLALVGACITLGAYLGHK

For the compound `CCOc1cccc(-c2ccccc2CCC(=O)N2CCN(c3ccc(C(=O)NS(=O)(=O)c4ccc(NCCSc5ccccc5)c(C(F)(F)F)c4)nn3)CC2)c1` [Compound B2R011-01, 6-[4-[3-[2-(3-Ethoxyphenyl)phenyl]propanoyl]piperazin-1-yl]-N-[4-(2-phenylsulfanylethylamino)-3-(trifluoromethyl)phenyl]sulfonylpyridazine-3-carboxamide], the “ASMS ratio (%) n = 1” value was 17.7% and the “ASMS ratio (%) n = 2” value is −1.3%. The matching figures for `CCOc1cncc(-c2ccccc2CCC(=O)N2CCN(c3ccc(C(=O)NS(=O)(=O)c4ccc(NCCSc5ccccc5)c(C(F)(F)F)c4)nn3)CC2)c1` [Compound B2R012-01, 6-[4-[3-[2-(5-Ethoxypyridin-3-yl)phenyl]propanoyl]piperazin-1-yl]-N-[4-(2-phenylsulfanylethylamino)-3-(trifluoromethyl)phenyl]sulfonylpyridazine-3-carboxamide]: 15.8% and 13.5%. In the case of `CCOc1cccc(-c2ccc(C(=O)N3CCN(c4ccc(C(=O)NS(=O)(=O)c5ccc(NCCSc6ccccc6)c(C(F)(F)F)c5)nn4)CC3)c3ccccc23)c1` [Compound B2R013-01, 6-[4-[4-(3-Ethoxyphenyl)naphthalene-1-carbonyl]piperazin-1-yl]-N-[4-(2-phenylsulfanylethylamino)-3-(trifluoromethyl)phenyl]sulfonylpyridazine-3-carboxamide], the “ASMS ratio (%) n = 1” value is 7.5% and the “ASMS ratio (%) n = 2” value is 7.7%. On the same counts, the results for `CCOc1cncc(-c2ccc(C(=O)N3CCN(c4ccc(C(=O)NS(=O)(=O)c5ccc(NCCSc6ccccc6)c(C(F)(F)F)c5)nn4)CC3)c3ccccc23)c1` [Compound B2R014-01, 6-[4-[4-(5-Ethoxypyridin-3-yl)naphthalene-1-carbonyl]piperazin-1-yl]-N-[4-(2-phenylsulfanylethylamino)-3-(trifluoromethyl)phenyl]sulfonylpyridazine-3-carboxamide] are 18.6% and 15.1%. For the compound `CCOc1cccc(-c2cc(C(=O)N3CCN(c4ccc(C(=O)NS(=O)(=O)c5ccc(NCCSc6ccccc6)c(C(F)(F)F)c5)nn4)CC3)cc(C(C)(C)C)c2)c1` [Compound B2R015-01, 6-[4-[3-tert-Butyl-5-(3-ethoxyphenyl)benzoyl]piperazin-1-yl]-N-[4-(2-phenylsulfanylethylamino)-3-(trifluoromethyl)phenyl]sulfonylpyridazine-3-carboxamide], the “ASMS ratio (%) n = 1” value is on record as 9.7% and the “ASMS ratio (%) n = 2” value is on record as 0.0%. For the compound `CCOc1cncc(-c2cc(C(=O)N3CCN(c4ccc(C(=O)NS(=O)(=O)c5ccc(NCCSc6ccccc6)c(C(F)(F)F)c5)nn4)CC3)cc(C(C)(C)C)c2)c1` [Compound B2R016-01, 6-[4-[3-tert-Butyl-5-(5-ethoxypyridin-3-yl)benzoyl]piperazin-1-yl]-N-[4-(2-phenylsulfanylethylamino)-3-(trifluoromethyl)phenyl]sulfonylpyridazine-3-carboxamide], the “ASMS ratio (%) n = 1” value was 9.1% and the “ASMS ratio (%) n = 2” value was 2.7%. Turning to `CCOc1cccc(-c2cc(C(=O)N3CCN(c4ccc(C(=O)NS(=O)(=O)c5ccc(NCCSc6ccccc6)c(C(F)(F)F)c5)nn4)CC3)cc(C(F)(F)F)c2)c1` [Compound B2R017-01, 6-[4-[3-(3-Ethoxyphenyl)-5-(trifluoromethyl)benzoyl]piperazin-1-yl]-N-[4-(2-phenylsulfanylethylamino)-3-(trifluoromethyl)phenyl]sulfonylpyridazine-3-carboxamide], the “ASMS ratio (%) n = 1” value was 32.9% and the “ASMS ratio (%) n = 2” value was determined as 27.2%.

For `CCOc1cncc(-c2cc(C(=O)N3CCN(c4ccc(C(=O)NS(=O)(=O)c5ccc(NCCSc6ccccc6)c(C(F)(F)F)c5)nn4)CC3)cc(C(F)(F)F)c2)c1` [Compound B2R018-01, 6-[4-[3-(5-Ethoxypyridin-3-yl)-5-(trifluoromethyl)benzoyl]piperazin-1-yl]-N-[4-(2-phenylsulfanylethylamino)-3-(trifluoromethyl)phenyl]sulfonylpyridazine-3-carboxamide], the “ASMS ratio (%) n = 1” value amounted to 5.1% and the “ASMS ratio (%) n = 2” value came to 7.8%. With `CCOc1cccc(C#Cc2cc(C(=O)N3CCN(c4ccc(C(=O)NS(=O)(=O)c5ccc(NCCSc6ccccc6)c(C(F)(F)F)c5)nn4)CC3)cc(C(F)(F)F)c2)c1` [Compound B2R019-01, 6-[4-[3-[2-(3-Ethoxyphenyl)ethynyl]-5-(trifluoromethyl)benzoyl]piperazin-1-yl]-N-[4-(2-phenylsulfanylethylamino)-3-(trifluoromethyl)phenyl]sulfonylpyridazine-3-carboxamide], the “ASMS ratio (%) n = 1” value turned out to be 5.2% and the “ASMS ratio (%) n = 2” value stood at 14.0%. Take `CCOc1cncc(C#Cc2cc(C(=O)N3CCN(c4ccc(C(=O)NS(=O)(=O)c5ccc(NCCSc6ccccc6)c(C(F)(F)F)c5)nn4)CC3)cc(C(F)(F)F)c2)c1` [Compound B2R020-01, 6-[4-[3-[2-(5-Ethoxypyridin-3-yl)ethynyl]-5-(trifluoromethyl)benzoyl]piperazin-1-yl]-N-[4-(2-phenylsulfanylethylamino)-3-(trifluoromethyl)phenyl]sulfonylpyridazine-3-carboxamide]: the “ASMS ratio (%) n = 1” value was determined as 10.8% and the “ASMS ratio (%) n = 2” value is listed as −17.7%.

On to `CCOc1cccc(-c2cnn(-c3cc(C(=O)N4CCN(c5ccc(C(=O)NS(=O)(=O)c6ccc(NCCSc7ccccc7)c(C(F)(F)F)c6)nn5)CC4)cc(C(F)(F)F)c3)c2)c1` [Compound B2R021-01, 6-[4-[3-[4-(3-Ethoxyphenyl)pyrazol-1-yl]-5-(trifluoromethyl)benzoyl]piperazin-1-yl]-N-[4-(2-phenylsulfanylethylamino)-3-(trifluoromethyl)phenyl]sulfonylpyridazine-3-carboxamide], for which the “ASMS ratio (%) n = 1” value is listed as 13.0% and the “ASMS ratio (%) n = 2” value amounted to 0.0%.

As to `CCOc1cncc(-c2cnn(-c3cc(C(=O)N4CCN(c5ccc(C(=O)NS(=O)(=O)c6ccc(NCCSc7ccccc7)c(C(F)(F)F)c6)nn5)CC4)cc(C(F)(F)F)c3)c2)c1` [Compound B2R022-01, 6-[4-[3-[4-(5-Ethoxypyridin-3-yl)pyrazol-1-yl]-5-(trifluoromethyl)benzoyl]piperazin-1-yl]-N-[4-(2-phenylsulfanylethylamino)-3-(trifluoromethyl)phenyl]sulfonylpyridazine-3-carboxamide], the “ASMS ratio (%) n = 1” value is recorded as 14.5% and the “ASMS ratio (%) n = 2” value is on record as 15.8%. As for `CCOc1cccc(-c2csc(C(=O)N3CCN(c4ccc(C(=O)NS(=O)(=O)c5ccc(NCCSc6ccccc6)c(C(F)(F)F)c5)cc4)CC3)c2)c1` [Compound B2R023-01, 4-[4-[4-(3-Ethoxyphenyl)thiophene-2-carbonyl]piperazin-1-yl]-N-[4-(2-phenylsulfanylethylamino)-3-(trifluoromethyl)phenyl]sulfonylbenzamide], the “ASMS ratio (%) n = 1” value amounted to 0.0% and the “ASMS ratio (%) n = 2” value was −15.5%. For `CCOc1cncc(-c2csc(C(=O)N3CCN(c4ccc(C(=O)NS(=O)(=O)c5ccc(NCCSc6ccccc6)c(C(F)(F)F)c5)cc4)CC3)c2)c1` [Compound B2R024-01, 4-[4-[4-(5-Ethoxypyridin-3-yl)thiophene-2-carbonyl]piperazin-1-yl]-N-[4-(2-phenylsulfanylethylamino)-3-(trifluoromethyl)phenyl]sulfonylbenzamide], the “ASMS ratio (%) n = 1” value came out at 0.0% and the “ASMS ratio (%) n = 2” value was −1.2%.

Regarding `CCOc1cccc(-c2ccc(C(=O)N3CCN(c4ccc(C(=O)NS(=O)(=O)c5ccc(NCCSc6ccccc6)c(C(F)(F)F)c5)cc4)CC3)cc2C)c1` [Compound B2R025-01, 4-[4-[4-(3-Ethoxyphenyl)-3-methylbenzoyl]piperazin-1-yl]-N-[4-(2-phenylsulfanylethylamino)-3-(trifluoromethyl)phenyl]sulfonylbenzamide], the “ASMS ratio (%) n = 1” value was −1.0% and the “ASMS ratio (%) n = 2” value is recorded as −2.4%. On to `CCOc1cncc(-c2ccc(C(=O)N3CCN(c4ccc(C(=O)NS(=O)(=O)c5ccc(NCCSc6ccccc6)c(C(F)(F)F)c5)cc4)CC3)cc2C)c1` [Compound B2R026-01, 4-[4-[4-(5-Ethoxypyridin-3-yl)-3-methylbenzoyl]piperazin-1-yl]-N-[4-(2-phenylsulfanylethylamino)-3-(trifluoromethyl)phenyl]sulfonylbenzamide], for which the “ASMS ratio (%) n = 1” value is reported as 1.7% and the “ASMS ratio (%) n = 2” value is recorded as −4.6%. Turning to `CCOc1cccc(-c2ccc(C(=O)N3CCN(c4ccc(C(=O)NS(=O)(=O)c5ccc(NCCSc6ccccc6)c(C(F)(F)F)c5)cc4)CC3)cc2F)c1` [Compound B2R027-01, 4-[4-[4-(3-Ethoxyphenyl)-3-fluorobenzoyl]piperazin-1-yl]-N-[4-(2-phenylsulfanylethylamino)-3-(trifluoromethyl)phenyl]sulfonylbenzamide], the “ASMS ratio (%) n = 1” value is −3.7% and the “ASMS ratio (%) n = 2” value is recorded as 1.2%. Consider `CCOc1cncc(-c2ccc(C(=O)N3CCN(c4ccc(C(=O)NS(=O)(=O)c5ccc(NCCSc6ccccc6)c(C(F)(F)F)c5)cc4)CC3)cc2F)c1` [Compound B2R028-01, 4-[4-[4-(5-Ethoxypyridin-3-yl)-3-fluorobenzoyl]piperazin-1-yl]-N-[4-(2-phenylsulfanylethylamino)-3-(trifluoromethyl)phenyl]sulfonylbenzamide], for which the “ASMS ratio (%) n = 1” value amounted to 4.1% and the “ASMS ratio (%) n = 2” value is given as −0.5%. On to `CCOc1cccc(C#Cc2ccccc2C(=O)N2CCN(c3ccc(C(=O)NS(=O)(=O)c4ccc(NCCSc5ccccc5)c(C(F)(F)F)c4)cc3)CC2)c1` [Compound B2R029-01, 4-[4-[2-[2-(3-Ethoxyphenyl)ethynyl]benzoyl]piperazin-1-yl]-N-[4-(2-phenylsulfanylethylamino)-3-(trifluoromethyl)phenyl]sulfonylbenzamide], for which the “ASMS ratio (%) n = 2” value amounted to 0.0%.
